# System: rats subjected to sTBI
# Experiment: sTBI rats, LMW-DS 1, 5, 15 mg/kg s.c. 30 min post-TBI: HPLC of brain energy metabolites, antioxidants, oxidative/nitrosative stress biomarkers (Example 4)
# Type: in vivo, rat
# Method: Male Wistar rats (n=160) of 300-350 g body weight were used in this study. They were fed with standard laboratory diet and water ad libitum in a controlled environment.
# As the accepted anesthetic mixture, animals received 35 mg/kg b.w. ketamine and 0.25 mg/kg body weight midazolam by intramuscular injection. Diffuse sTBI was induced according to the “weight drop” impact acceleration model set up by Marmarou et al. J. Neurosurg. 1994, 80: 291-300. This model causes diffuse axonal injury and it is able to reproduce the physical and mechanical characteristics of the diffuse TBI in humans.
# Severe TBI was induced by dropping a 450 g weight from 2 meters height onto the rat head protected by a helmet (metal disk previously fixed on the skull using dental cement) in order to uniformly distribute the mechanical force to the brain. Rats were placed prone on a bed of specific polyurethane foam inserted in a special container; this foam dissipates the major part of the potential energy (deriving from the mechanical forces) and prevents any rebound of the animal after the impact that could produce spinal damages.
# After 2 or 7 days from TBI induction, rats were anesthetized again and then immediately sacrificed. These time points are coincident with the worst biochemical derangement (2 days) or, in the case of a mildly injured brain, with a full metabolic recovery (7 days).
# The drug treatment consisted in a subcutaneous injection of 0.5 ml of LMW-DS (ILB®, Tikomed, Viken, Sweden, WO 2016/076780) and administered at 3 different concentrations (1, 5 and 15 mg/kg body weight), according to the schematic protocol described below. Sham-operated animals underwent the same procedure of anesthesia but TBI and were used as the control group.
# Rats subjected to sTBI and receiving a single administration of LMW-DS after 30 minutes post-TBI, with sacrifice at 2 days post-TBI. Animals were divided in the following subgroups: • 1. 12 animals subjected to sTBI and treated with 1 mg/kg b.w. LMW-DS • 2. 12 animals subjected to sTBI and treated with 5 mg/kg b.w. LMW-DS • 3. 12 animals subjected to sTBI and treated with 15 mg/kg b.w. LMW-DS
# Rats subjected to sTBI and receiving a single administration of LMW-DS after 30 minutes post-TBI, with sacrifice at 7 days post-TBI. Animals were divided in the following subgroups: • 1. 12 animals subjected to sTBI and treated with 1 mg/kg b.w. LMW-DS • 2. 12 animals subjected to sTBI and treated with 5 mg/kg b.w. LMW-DS • 3. 12 animals subjected to sTBI and treated with 15 mg/kg b.w. LMW-DS
# Rats (n = 12) subjected to sTBI and receiving repeated administrations of the maximal dose of LMW-DS (15 mg/kg b.w.) after 30 minutes, 3 days and 5 days post-TBI, with sacrifice at 7 days post-TBI. Four additional rats were used for the histo-morphological studies. Total rats in this group: n=16
# To minimize metabolite loss, an in vivo craniectomy was performed in all animals during anesthesia. The rat skull was carefully removed, the brain was exposed, sharply cut along the sagittal fissure and the two hemispheres were separated. The hemispheres dedicated to biochemical analyses were freeze-clamped by aluminum tongues pre-cooled in liquid nitrogen and then immersed in liquid nitrogen. The freeze-clamping procedure was introduced to accelerate freezing of the tissue, thus minimizing potential metabolite loss.
# Tissue homogenization for metabolite analyses was effected as described below. After the wet weight (w.w.) determination, the frozen hemispheres were placed into 7 ml of ice-cold, nitrogen-saturated, precipitating solution (1:10 w/v) composed by CH3CN + 10 mM KH2PO4, pH 7.40, (3:1; v:v), and the homogenization was performed using an Ultra-Turrax homogenizer set at 24,000 rpm/min (Janke & Kunkel, Staufen, Germany). […]
# [1] = 1 mg/kg, 7 d post-sTBI, adimensional ratio
substance,measurement,setting,value
sodium salt of dextran sulfate [LMW-DS],UDP-Glc,"1 mg/kg, 7 d post-sTBI",63.19 ± 12.84 nmol/g w.w.
same,UDP-GlcNac,"1 mg/kg, 7 d post-sTBI",85.36 ± 29.53 nmol/g w.w.
same,UMP,"1 mg/kg, 7 d post-sTBI",103.06 ± 19.96 nmol/g w.w.
same,URACIL,"1 mg/kg, 7 d post-sTBI",14.78 ± 3.04 nmol/g w.w.
same,URIC ACID,"1 mg/kg, 7 d post-sTBI",7.13 ± 1.70 nmol/g w.w.
same,URIDINE,"1 mg/kg, 7 d post-sTBI",110.17 ± 26.11 nmol/g w.w.
same,UTP,"1 mg/kg, 7 d post-sTBI",179.75 ± 31.48 nmol/g w.w.
same,XANTHINE,"1 mg/kg, 7 d post-sTBI",12.53 ± 3.54 nmol/g w.w.
same,β-PSEUDOURIDINE,"1 mg/kg, 7 d post-sTBI",14.00 ± 2.60 nmol/g w.w.
same,ATP/ADP,[1],6.12 ± 0.78
same,NAD+/NADH,[1],33.91 ± 9.32
same,ADENOSINE,"5 mg/kg, 2 d post-sTBI",92.58 ± 22.16 nmol/g w.w.
same,ADP,"5 mg/kg, 2 d post-sTBI",364.92 ± 31.39 nmol/g w.w.
same,ADP-Ribose,"5 mg/kg, 2 d post-sTBI",21.65 ± 4.35 nmol/g w.w.
same,AMP,"5 mg/kg, 2 d post-sTBI",67.03 ± 11.85 nmol/g w.w.
same,ASCORBIC ACID,"5 mg/kg, 2 d post-sTBI",2626.68 ± 151.17 nmol/g w.w.
same,ATP,"5 mg/kg, 2 d post-sTBI",1683.87 ± 98.66 nmol/g w.w.
same,Acetyl-CoA,"5 mg/kg, 2 d post-sTBI",34.85 ± 4.05 nmol/g w.w.
same,CDP choline,"5 mg/kg, 2 d post-sTBI",5.16 ± 0.77 nmol/g w.w.
same,CMP,"5 mg/kg, 2 d post-sTBI",28.94 ± 5.91 nmol/g w.w.
same,CREATININE,"5 mg/kg, 2 d post-sTBI",10.22 ± 1.90 nmol/g w.w.
same,CTP,"5 mg/kg, 2 d post-sTBI",37.72 ± 7.63 nmol/g w.w.
same,CYTIDINE,"5 mg/kg, 2 d post-sTBI",7.47 ± 1.35 nmol/g w.w.
same,CYTOSINE,"5 mg/kg, 2 d post-sTBI",13.65 ± 1.67 nmol/g w.w.
same,CoA-SH,"5 mg/kg, 2 d post-sTBI",7.46 ± 0.82 nmol/g w.w.
same,GDP,"5 mg/kg, 2 d post-sTBI",183.27 ± 25.32 nmol/g w.w.
same,GDP Glucose,"5 mg/kg, 2 d post-sTBI",83.81 ± 37.35 nmol/g w.w.
same,GMP,"5 mg/kg, 2 d post-sTBI",167.44 ± 8.47 nmol/g w.w.
same,GSH,"5 mg/kg, 2 d post-sTBI",2067.79 ± 301.54 nmol/g w.w.
same,GTP,"5 mg/kg, 2 d post-sTBI",180.01 ± 18.99 nmol/g w.w.
same,GUANINE,"5 mg/kg, 2 d post-sTBI",1.68 ± 0.42 nmol/g w.w.
same,GUANOSINE,"5 mg/kg, 2 d post-sTBI",30.97 ± 5.15 nmol/g w.w.
same,HYPOXANTHINE,"5 mg/kg, 2 d post-sTBI",4.18 ± 0.68 nmol/g w.w.
same,IMP,"5 mg/kg, 2 d post-sTBI",33.19 ± 6.25 nmol/g w.w.
same,INOSINE,"5 mg/kg, 2 d post-sTBI",114.89 ± 14.98 nmol/g w.w.
same,MDA,"5 mg/kg, 2 d post-sTBI",32.73 ± 5.33 nmol/g w.w.
same,Malonyl-CoA,"5 mg/kg, 2 d post-sTBI",35.58 ± 7.54 nmol/g w.w.
same,NADH,"5 mg/kg, 2 d post-sTBI",10.37 ± 1.19 nmol/g w.w.
same,NADPH,"5 mg/kg, 2 d post-sTBI",37.48 ± 3.11 nmol/g w.w.
same,NADP^+,"5 mg/kg, 2 d post-sTBI",11.86 ± 2.71 nmol/g w.w.
same,NAD^+,"5 mg/kg, 2 d post-sTBI",376.85 ± 64.15 nmol/g w.w.
same,NO2,"5 mg/kg, 2 d post-sTBI",218.12 ± 26.28 nmol/g w.w.
same,NO3,"5 mg/kg, 2 d post-sTBI",148.41 ± 32.30 nmol/g w.w.
same,UDP,"5 mg/kg, 2 d post-sTBI",70.93 ± 7.27 nmol/g w.w.
same,UDP-Gal,"5 mg/kg, 2 d post-sTBI",116.42 ± 9.72 nmol/g w.w.
same,UDP-GalNac,"5 mg/kg, 2 d post-sTBI",20.75 ± 3.06 nmol/g w.w.
same,UDP-Glc,"5 mg/kg, 2 d post-sTBI",28.60 ± 4.23 nmol/g w.w.
same,UDP-GlcNac,"5 mg/kg, 2 d post-sTBI",140.58 ± 12.80 nmol/g w.w.
same,UMP,"5 mg/kg, 2 d post-sTBI",97.98 ± 13.53 nmol/g w.w.
same,URACIL,"5 mg/kg, 2 d post-sTBI",17.83 ± 3.48 nmol/g w.w.
same,URIC ACID,"5 mg/kg, 2 d post-sTBI",11.22 ± 2.30 nmol/g w.w.
same,URIDINE,"5 mg/kg, 2 d post-sTBI",117.21 ± 20.64 nmol/g w.w.
same,UTP,"5 mg/kg, 2 d post-sTBI",142.82 ± 22.43 nmol/g w.w.
same,XANTHINE,"5 mg/kg, 2 d post-sTBI",6.71 ± 0.70 nmol/g w.w.
same,β-PSEUDOURIDINE,"5 mg/kg, 2 d post-sTBI",10.41 ± 2.09 nmol/g w.w.
same,NAD^+/NADH,"5 mg/kg, 2 d post-sTBI, adimensional ratio",36.61 ± 6.09
same,ADENOSINE,"5 mg/kg, 7 d post-sTBI",22.24 ± 16.47 nmol/g w.w.
same,ADP,"5 mg/kg, 7 d post-sTBI",289.27 ± 38.52 nmol/g w.w.
same,ADP-Ribose,"5 mg/kg, 7 d post-sTBI",6.76 ± 1.70 nmol/g w.w.
same,AMP,"5 mg/kg, 7 d post-sTBI",59.50 ± 4.68 nmol/g w.w.
same,ASCORBIC ACID,"5 mg/kg, 7 d post-sTBI",2195.87 ± 264.45 nmol/g w.w.
same,ATP,"5 mg/kg, 7 d post-sTBI",1730.92 ± 139.24 nmol/g w.w.
same,Acetyl-CoA,"5 mg/kg, 7 d post-sTBI",22.87 ± 3.89 nmol/g w.w.
same,CDP choline,"5 mg/kg, 7 d post-sTBI",10.37 ± 3.33 nmol/g w.w.
same,CMP,"5 mg/kg, 7 d post-sTBI",55.67 ± 22.97 nmol/g w.w.
same,CREATININE,"5 mg/kg, 7 d post-sTBI",5.48 ± 0.97 nmol/g w.w.
same,CTP,"5 mg/kg, 7 d post-sTBI",79.08 ± 14.54 nmol/g w.w.
same,CYTIDINE,"5 mg/kg, 7 d post-sTBI",26.51 ± 9.33 nmol/g w.w.
same,CYTOSINE,"5 mg/kg, 7 d post-sTBI",12.67 ± 2.72 nmol/g w.w.
same,CoA-SH,"5 mg/kg, 7 d post-sTBI",51.86 ± 6.66 nmol/g w.w.
same,GDP,"5 mg/kg, 7 d post-sTBI",126.82 ± 14.49 nmol/g w.w.
same,GDP Glucose,"5 mg/kg, 7 d post-sTBI",104.76 ± 12.25 nmol/g w.w.
same,GMP,"5 mg/kg, 7 d post-sTBI",101.42 ± 48.00 nmol/g w.w.
same,GSH,"5 mg/kg, 7 d post-sTBI",2412.17 ± 317.97 nmol/g w.w.
same,GTP,"5 mg/kg, 7 d post-sTBI",453.86 ± 41.27 nmol/g w.w.
same,GUANINE,"5 mg/kg, 7 d post-sTBI",7.92 ± 3.37 nmol/g w.w.
same,GUANOSINE,"5 mg/kg, 7 d post-sTBI",33.42± 6.96 nmol/g w.w.
same,HYPOXANTHINE,"5 mg/kg, 7 d post-sTBI",13.45 ± 3.91 nmol/g w.w.
same,IMP,"5 mg/kg, 7 d post-sTBI",68.72 ± 17.60 nmol/g w.w.
same,INOSINE,"5 mg/kg, 7 d post-sTBI",196.61 ± 22.06 nmol/g w.w.
same,MDA,"5 mg/kg, 7 d post-sTBI",17.78 ± 2.94 nmol/g w.w.

# From patent publication US20230346827A1 (priority 2020, published 2023)
